Measured values as given in patent US10221163B2 (priority 2015, dated 2019).
Like-named read-outs stand apart in the source and are kept apart here.

How the values were obtained:
IMP-1 = IMP-1 (Serratia marcescens, UniProt P52699); experiment: biochemical; type: biochemical; conditions: CCF2-FA substrate, 2 pM enzyme, 2 hours at 25° C.
Outline: (§1)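 Two-hour, 25° C incubation of enzyme with inhibitor and CCF2-FA (7-hydroxycoumarin–cephalosporin–fluorescein). Fluorescence read-out; IC50 via 4-parameter fit.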

NDM-1 = NDM-1 (Klebsiella pneumoniae, UniProt C7C422); experiment: biochemical; type: biochemical; conditions: fluorescence assay, CCF2-FA substrate, 1 pM enzyme, 2 hours at 25° C.; read-out: NDM-1 IC50
Outline: as §1

[1] = test system: Pseudomonas aeruginosa efflux− (MB9799), IMP-1; type: cell-based; conditions: concentration restoring susceptibility to imipenem at 2 μg/mL in the presence of a class A, C, D serine β-lactamase inhibitor closely related to relebactam
Outline: (§2)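 Microbroth MIC tests in PAO1-background strains with fixed imipenem and/or ceftazidime, usually at the CLSI breakpoint, plus fixed class A/C β-lactamase inhibitor against AmpC. MBL inhibitor titrated; concentration restoring susceptibility recorded and compared as fold difference between efflux+ MB9798 and efflux− MB9799.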

VIM-1 = VIM-1 (Pseudomonas aeruginosa (strain ATCC 15692 / DSM 22644 / CIP 104116 / JCM 14847 / LMG 12228 / 1C / PRS 101 / PAO1), UniProt A0A0F7KYQ8); experiment: biochemical; conditions: CCF2-FA substrate, 30 pM enzyme, 2 hours at 25° C.
Outline: as §1

[2] = test system: Klebsiella pneumoniae expressing VIM-1 (IHMA599644); type: cell-based; conditions: with imipenem 1 μg/ml; 95% inhibition of bacterial growth
Outline: (§3)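 Clinical isolates (E. coli NDM-1, S. marcescens IMP-1, K. pneumoniae VIM-1) were diluted 1:100 from saline suspension into 1.1×CAMHB and exposed to test compound with imipenem at 1 μg/ml. Plates were incubated at 35° C for 22 hours to 24 hours, and growth was read by absorbance.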

[3] = test system: Escherichia coli expressing NDM-1 (CLB30005, CLB30016); type: cell-based; conditions: with imipenem 1 μg/ml; 95% inhibition of bacterial growth
Outline: as §3

[4] = test system: Serratia marcescens expressing IMP-1 (CL5741); type: cell-based; conditions: with imipenem 1 μg/ml; 95% inhibition of bacterial growth
Outline: as §3

[5] = test system: Pseudomonas aeruginosa efflux+ (MB9798), IMP-1; type: cell-based; conditions: concentration restoring susceptibility to imipenem at 2 μg/mL in the presence of a class A, C, D serine β-lactamase inhibitor closely related to relebactam
Outline: as §2

[6] = test system: Pseudomonas aeruginosa MB9798 vs MB9799; conditions: ratio MITC95 PA_9798/MITC95 PA_9799
Outline: as §2

[7] = fluorescence assay, read-out: IMP-1 IC50
[8] = fluorescence assay, read-out: VIM-1 IC50

NDM-1, sequence (C7C422 whole entry, looked up, species assumed): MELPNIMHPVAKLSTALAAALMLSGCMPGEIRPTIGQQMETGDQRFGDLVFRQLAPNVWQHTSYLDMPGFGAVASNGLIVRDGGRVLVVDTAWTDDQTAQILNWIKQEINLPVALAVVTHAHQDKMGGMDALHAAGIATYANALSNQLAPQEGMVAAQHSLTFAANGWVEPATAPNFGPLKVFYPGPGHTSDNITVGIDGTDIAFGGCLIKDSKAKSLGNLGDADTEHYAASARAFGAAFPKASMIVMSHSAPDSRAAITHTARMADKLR
IMP-1, sequence (P52699 whole entry, looked up, species assumed): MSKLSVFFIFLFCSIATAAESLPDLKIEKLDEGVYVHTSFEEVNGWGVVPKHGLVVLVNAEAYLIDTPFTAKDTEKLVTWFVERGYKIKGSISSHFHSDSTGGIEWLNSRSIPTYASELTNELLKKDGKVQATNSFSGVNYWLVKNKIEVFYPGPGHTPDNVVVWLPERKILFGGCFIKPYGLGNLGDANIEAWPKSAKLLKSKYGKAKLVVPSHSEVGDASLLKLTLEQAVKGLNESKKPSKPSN

Compound | IC50 (IMP-1; IMP-1 IC50, fluorescence assay) [nM] | IC50 (NDM-1) [nM] | P. aeruginosa expressing IMP-1, efflux − (MB9799) MITC95 [1] [µM] | IC50 (VIM-1; VIM-1 IC50, fluorescence assay) [nM] | Klebsiella pneumoniae expressing VIM-1 (IHMA599644) MITC95 [2] [µM] | Escherichia coli expressing NDM-1 (CLB30016) MITC95 [3] [µM] | Serratia marcescens expressing IMP-1 (CL5741) MITC95 [4] [µM] | P. aeruginosa expressing IMP-1, efflux + (MB9798) MITC95 [5] [µM] | Efflux ratio [6] | IC50 (IMP-1; [7]) [nM] | IC50 (VIM-1; [8]) [nM]
NC[C@H]1CCN(S(=O)(=O)c2ccc(-c3cccc4sc(N)nc34)c(-c3nnn[nH]3)c2S(N)(=O)=O)C1 [Example 74, 3-(2-amino-1,3-benzothiazol-4-yl)-6-{[(3R)-3-(aminomethyl)pyrrolidin-1-yl]sulfonyl}-2-(1H-tetrazol-5-yl)benzenesulfonamide] | 0.84 | 0.646 | 1.172 | 1.14 | 3.125 | 2.344 | 2.344 | 1.172 | 1.00 | – | –
Nc1nc2c(-c3ccc(S(=O)(=O)NC[C@@H]4CCNC4)c(S(N)(=O)=O)c3-c3nnn[nH]3)cccc2s1 [Example 75, 4-(2-amino-1,3-benzothiazol-4-yl)-N^1-[(3R)-pyrrolidin-3-ylmethyl]-3-(1H-tetrazol-5-yl)benzene-1,2-disulfonamide] | 0.158 | 0.0207 | 0.7813 | 0.115 | 3.125 | 1.563 | 1.563 | 0.7813 | 1.00 | – | –
CN1CC[C@@H](CNS(=O)(=O)c2ccc(-c3cccc4sc(N)nc34)c(-c3nnn[nH]3)c2S(N)(=O)=O)C1 [Example 76, 4-(2-amino-1,3-benzothiazol-4-yl)-N^1-{[(3R)-1-methylpyrrolidin-3-yl]methyl}-3-(1H-tetrazol-5-yl)benzene-1,2-disulfonamide] | – | 0.0285 | 1.563 | 0.129 | 3.125 | 3.125 | 1.563 | 0.7813 | 0.50 | 0.195 | –
CN1CC[C@H](CNS(=O)(=O)c2ccc(-c3cccc4sc(N)nc34)c(-c3nnn[nH]3)c2S(N)(=O)=O)C1 [Example 77, 4-(2-amino-1,3-benzothiazol-4-yl)-N1-{[(3S)-1-methylpyrrolidin-3-yl]methyl}-3-(1H-tetrazol-5-yl)benzene-1,2-disulfonamide] | – | 0.0341 | 1.563 | 0.133 | 6.25 | 3.125 | 1.563 | 0.7813 | 0.50 | 0.166 | –
Nc1nc2c(-c3ccc(S(=O)(=O)N[C@H]4CN[C@H](CO)C4)c(S(N)(=O)=O)c3-c3nnn[nH]3)cccc2s1 [Example 78, 4-(2-amino-1,3-benzothiazol-4-yl)-N1-[(3R,5S)-5-(hydroxymethyl)pyrrolidin-3-yl]-3-(1H-tetrazol-5-yl)benzene-1,2-disulfonamide] | – | 0.0225 | 1.563 | 0.183 | 3.125 | 3.125 | 1.563 | 0.7813 | 0.50 | 0.234 | –
Nc1nc2c(-c3ccc(S(=O)(=O)N[C@@H]4CN[C@@H](CO)C4)c(S(N)(=O)=O)c3-c3nnn[nH]3)cccc2s1 [Example 79, 4-(2-amino-1,3-benzothiazol-4-yl)-N1-[(3S,5R)-5-(hydroxymethyl)pyrrolidin-3-yl]-3-(1H-tetrazol-5-yl)benzene-1,2-disulfonamide] | – | 0.0427 | 1.563 | 0.181 | 3.125 | 1.563 | 1.563 | 0.7813 | 0.50 | 0.283 | –
Nc1nc2c(-c3ccc(S(=O)(=O)N[C@@H]4CN[C@H](CO)C4)c(S(N)(=O)=O)c3-c3nnn[nH]3)cccc2s1 [Example 80, 4-(2-amino-1,3-benzothiazol-4-yl)-N1-[(3S,5S)-5-(hydroxymethyl)pyrrolidin-3-yl]-3-(1H-tetrazol-5-yl)benzene-1,2-disulfonamide] | – | 0.0488 | 1.563 | 0.158 | 3.125 | 1.563 | 1.563 | 1.563 | 1.00 | 0.336 | –
Nc1nc2c(-c3ccc(S(=O)(=O)N[C@H]4CN[C@@H](CO)C4)c(S(N)(=O)=O)c3-c3nnn[nH]3)cccc2s1 [Example 81, 4-(2-amino-1,3-benzothiazol-4-yl)-N1-[(3R,5R)-5-(hydroxymethyl)pyrrolidin-3-yl]-3-(1H-tetrazol-5-yl)benzene-1,2-disulfonamide] | – | 0.0286 | 1.563 | 0.135 | 1.563 | 1.563 | 1.563 | 0.7813 | 0.50 | 0.191 | –
Nc1nc2c(-c3ccc(S(=O)(=O)N[C@H]4CN[C@@H](C(=O)O)C4)c(S(N)(=O)=O)c3-c3nnn[nH]3)cccc2s1 [Example 82, (4R)-4-({[4-(2-amino-1,3-benzothiazol-4-yl)-2-sulfamoyl-3-(1H-tetrazol-5-yl)phenyl]sulfonyl}amino)-D-proline] | – | 0.0493 | 6.25 | 0.197 | 12.5 | 6.25 | 12.5 | 3.125 | 0.50 | 0.206 | –
Nc1nc2c(-c3ccc(S(=O)(=O)NC4(CO)CCNC4)c(S(N)(=O)=O)c3-c3nnn[nH]3)cccc2s1 (stereo not drawn) [Example 83, 4-(2-amino-1,3-benzothiazol-4-yl)-N1-[3-(hydroxymethyl)pyrrolidin-3-yl]-3-(1H-tetrazol-5-yl)benzene-1,2-disulfonamide] | – | 0.0483 | 1.563 | – | 3.125 | 3.125 | 3.125 | 0.7813 | 0.50 | 0.261 | 0.208
Nc1nc2c(-c3ccc(S(=O)(=O)NC4(CO)CCNC4)c(S(N)(=O)=O)c3-c3nnn[nH]3)cccc2s1 (stereo not drawn) [Example 84, 4-(2-amino-1,3-benzothiazol-4-yl)-N1-[3-(hydroxymethyl)pyrrolidin-3-yl]-3-(1H-tetrazol-5-yl)benzene-1,2-disulfonamide] | – | 0.0619 | 1.563 | – | 3.125 | 1.563 | 3.125 | 1.563 | 1.00 | 0.403 | 0.27
COCCNCCNS(=O)(=O)c1ccc(-c2cccc3sc(N)nc23)c(-c2nnn[nH]2)c1S(N)(=O)=O [Example 85, 4-(2-aminobenzo[d]thiazol-4-yl)-N1-(2-((2-methoxyethyl)amino)ethyl)-3-(1H-tetrazol-5-yl)benzene-1,2-disulfonamide] | – | 0.0351 | 1.563 | – | 6.25 | 6.25 | 3.125 | 1.563 | 1.00 | 0.205 | 0.147
